The text below walks through data of paper PMC10059083, “Design, Synthesis, and Biological Evaluation of Novel Hydroxamic Acid-Based Organoselenium Hybrids” (Pharmaceuticals, 2023).

The test system of assay [1] is S. aureus. The experiment in a line: Agar diffusion assay, S. aureus. Format: cell-based. To be noted: Staphylococcus aureus; 6-mm disks soaked with 20 μM of the OSe agents; read-out: S. aureus ZID (inhibition zone diameter).
The nature of assay [2]: ABTS radical scavenging assay. The settings on record: for antioxidant (scavenging) activity in the ABTS assay: compounds 50 µL, 1 mM in MeOH, ABTS solution 60 µL, absorbance at 734 nm. On the procedure: (§1) The antioxidant activities of the OSe compounds were intensively investigated because these are usually the cause of their chemopreventive potency. Their redox activities were evaluated via DPPH and ABTS assays, using ascorbic acid as the standard. We spectrophotometrically measured the antioxidant efficiency of the OSe compounds by their ability to decolorise the DPPH^. and ABTS^. radicals at […] (Figure 2).
(§2) The compounds’ antioxidant properties were assessed by in vitro bioassays using DPPH and ABTS, following the reported method. Details are in the Supplementary Materials.
(§3) Figure 4 Estimation of the OSe compounds’ redox activities via DPPH and ABTS experiments. All tests are mean ± S.D. ABTS experiment: absorbance was followed at 734 nm for OSe compounds (50 µL, 1 mM in MeOH) and ABTS solution (60 µL). DPPH Absorbance was monitored at 517 nm for OSe compounds (200 µL, 1 mM in MeOH) and DPPH (400 µL) after 30 min. […]
1.1.3.2. The ABTS bioassay
The antioxidant activity of the investigated compounds was assessed using 2,2’-azino-bis(3-ethylbenzothiazoline-6-sulphonic acid (ABTS) method. The radical cation derived from ABTS was prepared by the reaction of 60 mM ABTS solution with 0.3 M manganese dioxide solution in 0.1M phosphate buffer, pH 7. Then, the mixture was shaken, centrifuged, filtered, and the absorbance (Acontrol ) of […]
the resulting green-blue solution (ABTS radical solution) was measured at wavelength 734 nm. Then, […] of 1 mg/ml test compound in phosphate-buffered methanol was added. The absorbance (Atest) was measured. The reduction in color intensity was expressed as % inhibition. The % inhibition for each […]
compound is calculated from the following equation
Inhibition% = (Acontrol-Asample)/(Acontrol)*100
Ascorbic acid (vitamin C) was used as a standard antioxidant (positive control). A blank sample was run […]
without ABTS and using MeOH/phosphate buffer (1:1) instead of the sample. A negative control sample […]
was run with MeOH/phosphate buffer (1:1) instead of a tested compound.

The test system of assay [3] is C. albicans. The experiment in a line: Agar diffusion assay, C. albicans. Format: cell-based, Candida albicans. To be noted: for zone of inhibition at 20 µM: Candida albicans, read-out: C. albicans ZID (inhibition zone diameter); for C. albicans IA% (activity index): ratio of inhibition zone of compound to that of positive control (clotrimazole).
The test system of assay [4] is S. aureus. The experiment in a line: Agar diffusion assay, S. aureus. Format: cell-based, Staphylococcus aureus. On the set-up: concentration or dose not given beside the values. The settings on record: ratio of inhibition zone of compound to that of positive control (ampicillin). The text has this: (§4) The encouraging antitumor properties of the OSe compounds motivated us to evaluate their corresponding antimicrobial activities against the C. albicans fungal strain, S. aureus Gram-positive bacteria, and E. coli Gram-negative bacteria. Therefore, we applied the agar diffusion and minimum inhibitory concentration (MIC) methods using clotrimazole antifungal and ampicillin antibacterial drugs as standards.
The products’ antimicrobial properties were examined according to the previously reported method, via agar well diffusion assay against E. coli, S. aureus, and C. albicans. A microdilution method was also used to record MICs (M), following the previously reported procedure. Experimental details can be found in the Supplementary Materials. […]
1.1.2. The antimicrobial activity
The antimicrobial activities of the OSe compounds were evaluate d against C. albicans yeast as well as E. coli gram-negative and S. aureus gram-positive bacteria employing the agar well diffusion assay.
Briefly, a concentration of 1 mM was prepared for each compound by dissolving in DMSO. Paper discs of standard size […] were sterilized in an autoclave and soaked in 9 µL of the test compounds, and placed in the Petri dishes, which in turn contain a nutrient media (agar 9 g, peptone 5 g, and beef extract 3 g) seeded with the dedicated strain. Incubation lasted for 13 h at 36 0C.
Experiments were replicated three times and the antifungal clotrimazole and antibiotic ampicillin […]

Assay [5] is described as follows: DPPH radical scavenging assay. The settings on record: for antioxidant (scavenging) activity in the DPPH assay: compounds 200 µL, 1 mM in MeOH, DPPH 400 µL, 30 min, absorbance at 517 nm. On the procedure:
as §1, §2, §3
1.1.3. The antioxidant activity
1.1.3.1. The DPPH bioassay
The hydrogen atom or electron donation ability of the corresponding compounds was measured by estimating the bleaching of the purple color of a methanolic solution of DPPH [5]. This spectrophotometric assay uses stable DPPH. reagent. The sample was prepared by adding […] of the OSe compounds (1 mM in methanol) to […] DPPH in methanol. After 30 min of incubation in the dark, the absorbance was read against a blank at […]. Ascorbic acid (vitamin C) and ebselen were used as standard antioxidants (positive control). A blank sample was run without DPPH. A negative control sample was run using methanol instead of the sample. The radical scavenging activity was calculated using the following equation:
Inhibition%= (Ablank-Asample)/(Ablank)*100. […]

In assay [6] the test system is WI-38 cells. The experiment in a line: MTT cytotoxicity assay, normal lung fibroblast WI-38 cells. Format: cell-based. To be noted: Homo sapiens, WI-38, 24 h, read-out: WI38 IC50. The text has this:
(§5) Recently, OSe agents have attracted interest due to their potential chemoprotective and antitumor properties. […] Therefore, we estimated the OSe agents’ antiproliferative activities against different cancer cells, i.e., MCF-7 and HepG2 cells and healthy lung fibroblast WI-38 cells, using the MTT assay. The drug doxorubicin was employed as the standard. The corresponding therapeutic indices (TI) are described as the proportion of the WI38 cells IC50 to the IC50 of the cancer cell (e.g., MCF-7 and HepG2) (Table 1).
(§6) The products’ anticancer activity was examined using the MTT assay against breast (MCF-7) carcinoma cells, liver (HepG2), and normal WI-38 cells, following the previously reported method. Experimental details can be found in the Supplementary Materials.
(§7) 1.1. The biological assays
(§8) 1.1.1. The anticancer activity
(§9) The breast adenocarcinoma (MCF-7), Hepatocellular carcinoma (HEPG-2), and normal fibroblast (WI-38) cells were obtained from ATCC via Holding company for biological products and vaccines (VACSERA), Cairo, Egypt. The reagents […] medium, MTT, DMSO, and fetal bovine serum was obtained from Sigma Aldrich. Dulbecco’s modified Eagle’s medium was used as the culture medium for the cells, and the cytotoxicity was evaluated using the reported MTT assay. Doxorubicin was used as the positive reference, and the IC50 values were obtained from the corresponding dose-response curve.
(§10) This colorimetric assay is based on converting the yellow tetrazolium bromide (MTT) to a purple formazan derivative by mitochondrial succinate dehydrogenase in viable cells. Cell lines were cultured in […] medium with 10% fetal bovine serum. Antibiotics added were 100 units/ml penicillin and 100µg/ml streptomycin at 37 C in a 5% Co2 incubator. The cell lines were seeded in a 96-well plate at a density of 1.0x10^4 cells/well. at 37 C for 48 h under 5% Co2. After incubation, the cells were treated with different concentrations of compounds and incubated for 13 […]
(§11) Finally, dimethyl sulfoxide (DMSO) in the volume of 100 µl is added to each well to dissolve the purple formazan formed. The colorimetric assay is measured and recorded at an absorbance of 570 […]
(§12) The percentage of the relative cell viability was calculated as (A570 of treated samples/A570 of the untreated sample) X 100. […]

Assay [7] deals with MCF-7 cells. As to the kind of experiment: MTT antiproliferative assay, MCF-7 cells. Format: cell-based. The settings on record: for IC50: Homo sapiens, MCF7, 24 h, read-out: MCF7 IC50; for MCF7 TI (therapeutic index): ratio of IC50 against WI38 cells to IC50 against MCF-7 cells.
Source text: as §5, §6, §7, §8, §9, §10, §11, §12

In assay [8] the test system is HepG2 cells. The experiment in a line: MTT antiproliferative assay, HepG2 cells. Format: cell-based. To be noted: for IC50: Homo sapiens, HepG2, 24 h, read-out: HepG2 IC50; for HepG2 TI (therapeutic index): ratio of IC50 against WI38 cells to IC50 against HepG2 cells.
Source text: Recently, OSe agents have attracted interest due to their potential chemoprotective and antitumor properties. We have developed several OSe compounds with promising antioxidant, antimicrobial, and antitumor properties. Therefore, we estimated the OSe agents’ antiproliferative activities against different cancer cells, i.e., MCF-7 and HepG2 cells and healthy lung fibroblast WI-38 cells, using the MTT assay. The drug doxorubicin was employed as the standard. The corresponding therapeutic indices (TI) are described as the proportion of the WI38 cells IC50 to the IC50 of the cancer cell (e.g., MCF-7 and HepG2) (Table 1).
as §6, §7, §8, §9, §10
Finally, dimethyl sulfoxide (DMSO) in the volume of 100 µl is added to each well to dissolve the purple formazan formed. The colorimetric assay is measured and recorded at an absorbance of 570 nm using a plate reader (EXL 800, USA). The percentage of the relative cell viability was calculated as (A570 of treated samples/A570 of the untreated sample) X 100. […]

For assay [9], the system named is C. albicans. The experiment in a line: MIC by microdilution, C. albicans. To be noted: Candida albicans; microdilution method; read-out: MIC C. albicans. Format: cell-based.
Source text: as §4
The products’ antimicrobial properties were examined according to the previously reported method, via agar well diffusion assay against E. coli, S. aureus, and C. albicans. A microdilution method was also used to record MICs (M), following the previously reported procedure. Experimental details can be found in the Supplementary Materials.
Briefly, a concentration of 1 mM was prepared for each compound by dissolving in DMSO. Paper discs of standard size […] were sterilized in an autoclave and soaked in 9 µL of the test compounds, and placed in the Petri dishes, which in turn contain a nutrient media (agar 9 g, peptone 5 g, and beef extract 3 g) seeded with the dedicated strain. Incubation lasted for 13 h at 36 0C. […]

In brackets after ≈: the same amount, converted by molar mass. Like-named read-outs stand apart in the source and are kept apart here.

For `O=CNc1ccc([Se]CC(=O)NOCc2ccccc2)cc1` [Compound 10, N-(benzyloxy)-2-((4-formamidophenyl)selanyl)acetamide], the zone of inhibition at 20 µM in [1] is 6 mm. Also, in [2], the “antioxidant (scavenging) activity in the ABTS assay” value (“antioxidant … in the ABTS assay” below) came to 64.7%. Moreover, in [3], the zone of inhibition at 20 µM was determined as 7 mm and the “C. albicans IA% (activity index)” value was 29.2%. Besides, the “S. aureus IA% (activity index)” value in [4] stood at 28.6%. Moreover, the “antioxidant (scavenging) activity in the DPPH assay” value (shortened to “antioxidant … in the DPPH assay”) in [5] worked out at 64.2%. For the same compound, the IC50 in [6] is 37.4 ± 2.6 µM. In assay [7], the IC50 was 49.3 ± 3.1 µM and the “MCF7 TI (therapeutic index)” value turned out to be 0.8. Moreover, in [8], the IC50 is 83.4 ± 4.2 µM and the “HepG2 TI (therapeutic index)” value was 0.5.
For `O=C(C[Se]c1ccc(N2C(=O)c3ccccc3C2=O)cc1)NOCc1ccccc1` [Compound 13, N-(benzyloxy)-2-((4-(1,3-dioxoisoindolin-2-yl)phenyl)selanyl)acetamide], in assay [2], the “antioxidant … in the ABTS assay” value is on record as 87.0%. Moreover, in [3], the zone of inhibition at 20 µM worked out at 2 mm and the “C. albicans IA% (activity index)” value stood at 8.3%. Also, in assay [5], the “antioxidant … in the DPPH assay” value is reported as 89.4%. In addition, the IC50 in assay [6] was 61.6 ± 3.8 µM. Further, in [7], the IC50 stood at 91.6 ± 4.6 µM and the “MCF7 TI (therapeutic index)” value worked out at 0.8. In assay [8], the IC50 was > 100 µM and the “HepG2 TI (therapeutic index)” value amounted to 0.6.
On to `Clc1ccccc1C(c1ccccc1)(c1ccccc1)n1ccnc1` [Clotrimazole, clotrimazole, reference compound], for which the MIC in [9] came to 2 µM (≈ 0.69 µg/mL). Further, the zone of inhibition at 20 µM in [3] (6-mm disks soaked with 20 μM of the OSe agents) was 24 mm. For the same compound, in assay [3], the “C. albicans IA% (activity index)” value stood at 100%.
On to `O=C1O[C@H]([C@@H](O)CO)C(O)=C1O` [Vitamin C, ascorbic acid, reference compound], for which the “antioxidant … in the ABTS assay” value in assay [2] worked out at 88.4%. Besides, the IC50 in assay [2] (concentration causing 50% decrease in absorbance, ABTS assay) was found to be 28.16 ± 0.19 µM; in assay [5] (concentration causing 50% decrease in absorbance, DPPH assay), 19.18 ± 0.13 µM. In addition, in [5], the “antioxidant … in the DPPH assay” value is 94.5%.
